US9688653B2, “Ethoxyphenyl thienyl compounds and methods for the treatment of bacterial infections” (Duke University, priority 2013, dated 2017)

Target: norepinephrine transporter (Homo sapiens, UniProt P23975)
Test: LeadProfilingScreen, single target
Assay type: binding
Details: Transporter, Norepinephrine (NET), hum, 10 μM
Experimental: Evaluation of off-target effects. Off target effects of lead molecules of interest were evaluated using the LeadProfilingScreen commercial assay at Eurofins Panlabs (Bothell, Wash.). Reference standards were run as an integral part of each assay to ensure the validity of the results obtained. Assay results are presented as the percent inhibition of specific binding or activity (for n=2 replicates) for the probe compound tested at a concentration of 10 μM. Details regarding the individual assays and methods are provided in Supplementary Information File 51.
DU003 & DU011 are biologically selective. DU003 and DU011 were submitted to the Eurofins Panlabs LeadProfilingScreen to assess off-target pharmacology 1421. […] In review of PubChem data, DU011 (CID23602075) is reported to have shown activity in only 21 of 467 (4.5%, as of Sep. 5, 2013) bioassays in which it was tested (assays unrelated to the current project). Per PubChem, DU003 (CID18109210) is reported to have shown activity in only 5 of 427 (1.2%, as of Sep. 5, 2013) bioassays in which it was tested (assays unrelated to the current project).

Chain of norepinephrine transporter (P23975 whole entry): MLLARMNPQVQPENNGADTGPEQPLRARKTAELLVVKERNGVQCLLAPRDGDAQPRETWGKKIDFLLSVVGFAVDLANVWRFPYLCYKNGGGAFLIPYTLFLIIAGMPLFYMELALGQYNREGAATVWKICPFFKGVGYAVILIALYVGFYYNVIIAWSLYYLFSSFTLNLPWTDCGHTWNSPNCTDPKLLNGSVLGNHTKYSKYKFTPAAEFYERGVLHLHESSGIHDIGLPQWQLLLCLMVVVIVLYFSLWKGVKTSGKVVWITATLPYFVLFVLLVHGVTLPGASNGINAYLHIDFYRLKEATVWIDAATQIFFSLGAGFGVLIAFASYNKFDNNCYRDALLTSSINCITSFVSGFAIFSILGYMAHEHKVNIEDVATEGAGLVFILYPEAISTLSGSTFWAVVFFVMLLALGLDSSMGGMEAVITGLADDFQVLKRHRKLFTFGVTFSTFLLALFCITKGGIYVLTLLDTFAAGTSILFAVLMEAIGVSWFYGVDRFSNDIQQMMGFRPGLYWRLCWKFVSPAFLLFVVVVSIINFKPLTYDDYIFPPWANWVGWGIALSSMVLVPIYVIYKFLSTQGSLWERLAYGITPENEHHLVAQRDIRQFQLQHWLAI

SMILES: CCOc1ccc(-c2cc(NC(=O)c3c(F)cccc3F)c(C(=O)O)s2)cc1 [KUC107784N-02]
- % Inh.: 13%
